The CheMixHub ionic liquid set

Test: xn = mol fraction of the nth substance listed

CSCC[C@H](N)C(=O)O + CCCCCCCCCCCC[N+](C)(C)C.[Br-] + O
viscosity [mPa·s], 101 kPa
Settings	293.15 K	298.15 K	303.15 K	308.15 K	313.15 K
x1 = 0.0001801, x2 = 0.0001083	1.019	0.904	0.811	0.746	0.677
x1 = 0.0001801, x2 = 0.0001624	1.024	0.907	0.814	0.749	0.68
x1 = 0.0001801, x2 = 0.0002165	1.03	0.909	0.816	0.75	0.681
x1 = 0.0001801, x2 = 0.0002706	1.034	0.912	0.818	0.752	0.683
x1 = 0.0001801, x2 = 0.0003247	1.04	0.915	0.82	0.754	0.685
x1 = 0.0001801, x2 = 0.0003788	1.044	0.919	0.823	0.756	0.687
x1 = 0.0001801, x2 = 0.0004329	1.046	0.922	0.829	0.758	0.689
x1 = 0.0001801, x2 = 0.0004869	1.049	0.927	0.834	0.76	0.691
x1 = 0.0001801, x2 = 0.000541	1.052	0.931	0.84	0.762	0.694
x1 = 0.0001802, x2 = 5.413e-05	1.013	0.9	0.81	0.745	0.672
x1 = 0.0008997, x2 = 0.0005439	1.07	0.912	0.836	0.761	0.683
x1 = 0.0008998, x2 = 0.0003808	1.061	0.906	0.819	0.751	0.672
x1 = 0.0008998, x2 = 0.0004351	1.063	0.908	0.822	0.753	0.675
x1 = 0.0008998, x2 = 0.0004895	1.066	0.91	0.831	0.756	0.679
x1 = 0.0008999, x2 = 0.000272	1.057	0.902	0.812	0.746	0.668
x1 = 0.0008999, x2 = 0.0003264	1.059	0.904	0.815	0.748	0.67
x1 = 0.0009, x2 = 0.0001632	1.053	0.899	0.809	0.74	0.663
x1 = 0.0009, x2 = 0.0002176	1.054	0.901	0.81	0.743	0.666
x1 = 0.0009001, x2 = 5.441e-05	1.048	0.894	0.805	0.732	0.658
x1 = 0.0009001, x2 = 0.0001088	1.051	0.896	0.807	0.735	0.66
x1 = 0.001798, x2 = 0.0001643	1.062	0.911	0.822	0.745	0.675
x1 = 0.001798, x2 = 0.000219	1.064	0.913	0.824	0.747	0.676
x1 = 0.001798, x2 = 0.0002738	1.066	0.916	0.827	0.749	0.678
x1 = 0.001798, x2 = 0.0003285	1.069	0.919	0.83	0.751	0.681
x1 = 0.001798, x2 = 0.0003832	1.073	0.921	0.832	0.756	0.683
x1 = 0.001798, x2 = 0.0004379	1.076	0.927	0.836	0.76	0.686
x1 = 0.001798, x2 = 0.0004927	1.079	0.932	0.84	0.764	0.692
x1 = 0.001798, x2 = 0.0005474	1.083	0.937	0.844	0.77	0.698
x1 = 0.001799, x2 = 5.476e-05	1.059	0.906	0.818	0.741	0.671
x1 = 0.001799, x2 = 0.0001095	1.06	0.909	0.82	0.743	0.673

CCCCCC[n+]1ccn(C)c1.O=[N+]([O-])c1cn[n-]c1 + CCCCCCCC[P+](CC)(CC)CC.O=S(=O)([N-]S(=O)(=O)C(F)(F)F)C(F)(F)F
Settings	viscosity [mPa·s]
288.15 K, 100 kPa, x2 = 0.1	770

CN1CCN(C)C1=O + CCCCCCCCn1cc[n+](C)c1.[Cl-]
100 kPa
Settings	viscosity [mPa·s]
288.15 K, x2 = 0.3018	87.7
288.15 K, x2 = 0.4964	614
293.15 K, x2 = 0.3991	158.4
303.15 K, x2 = 0.2056	16.57
303.15 K, x2 = 0.4964	230
308.15 K, x2 = 0.7994	1104
313.15 K, x2 = 0.4964	129.8
313.15 K, x2 = 0.7994	774
318.15 K, x2 = 0.4964	100.2
323.15 K, x2 = 0.4964	79.4
328.15 K, x2 = 0.105	3.05
328.15 K, x2 = 0.3991	31.3
333.15 K, x2 = 0.7007	148

CCCCCO + CCCCCC[n+]1ccn(C)c1.[Cl-]
Settings	viscosity [mPa·s]
303.15 K, 101 kPa, x1 = 1	3.03

CN1CCN(C)C1=O + CCCCCC[n+]1ccn(C)c1.[Cl-]
100 kPa
Settings	viscosity [mPa·s]
288.15 K, x2 = 0	2.368
288.15 K, x2 = 0.1007	6.33
303.15 K, x2 = 0.1999	9.99
308.15 K, x2 = 0	1.616
308.15 K, x2 = 0.1999	8.56
308.15 K, x2 = 0.3856	44.3
318.15 K, x2 = 0.6969	182
323.15 K, x2 = 0.1007	2.8
323.15 K, x2 = 0.2985	12.78
323.15 K, x2 = 0.4985	45.7
328.15 K, x2 = 0	1.195
333.15 K, x2 = 0.2985	9.67

CCCCCCCC[N+]1(C)CCCC1.O=S(=O)([N-]S(=O)(=O)C(F)(F)F)C(F)(F)F + CCCCOC(C)=O
298.15 K, 100 kPa
Settings	electrical conductivity [S/m]	viscosity [mPa·s]
x2 = 0.2414	0.145	–
x2 = 0.2589	–	51.3
x2 = 0.6824	0.353	–
x2 = 0.7923	0.355	–
x2 = 0.8427	0.326	–

O=S(=O)([N-]S(=O)(=O)C(F)(F)F)C(F)(F)F.[Li+] + CCCC[N+]1(C)CCCC1.O=S(=O)([N-]S(=O)(=O)C(F)(F)F)C(F)(F)F
100 kPa, x1 = 0.24
Settings	electrical conductivity [S/m]
277.9 K	0.007
283.4 K	0.016
298 K	0.062
346.4 K	0.429

O=S(=O)([N-]S(=O)(=O)C(F)(F)F)C(F)(F)F.[Li+] + CCCC[N+]1(C)CCCC1.O=S(=O)([N-]S(=O)(=O)C(F)(F)F)C(F)(F)F + O
viscosity [mPa·s], 100 kPa
Settings	293.15 K	298.15 K	303.15 K	313.15 K	323.15 K	333.15 K	343.15 K	353.15 K	363.15 K
x1 = 0.2745, x2 = 0.2745	117	85.1	66.1	43	29.5	20.8	15.8	11.9	9.38
x1 = 0.3106, x2 = 0.2745	144	110	85.8	52.2	34.6	24.4	17.9	13.6	10.6
x1 = 0.3509, x2 = 0.2745	242	179	135	82.5	49.1	33.5	23.9	17.7	13.6
x1 = 0.3868, x2 = 0.2745	437	334	246	141	87.5	52.3	35.9	25.8	19.3
x1 = 0.4308, x2 = 0.2745	599	421	304	171	104	62.1	42	29.9	21.5
